In the supplement of paper PMC11208160:

Assay: recombinant UMI read abundance after kanamycin selection (control-corrected) (log10(CPM+1)); higher = more efficient recombination; extreme values may be limits of the assay; sequences stand for … in AGTGCAGAGAAAATCGGCCAGTTTTCTCTGCCTGCAGTCCGCATGCCGTGGGACCCCTTGGGTTCTAACCTGTTGCCTAGATTTATGCAGCGGACTGCCTTTCTCCCAAAGTGATAAACCGG…AGGTTGGTTTCACT; site = the 11-nt donor
Summary of the method: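 Under IPTG (0.07 mM) plus kanamycin, or without selection, Escherichia coli carrying a UMI-tagged donor and donor-binding-loop pair library and a target plasmid for the IS621 bridge recombinase were plated in two replicates. Recombinant UMIs were PCR-amplified across the donor–target junction and sequenced. Counts were converted to CPM, averaged over replicates, scaled by control-derived factors and reported as log10(CPM+1).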
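Further: IS621 bridge recombinase in Escherichia coli cells against a fixed T5 target plasmid.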

Sequence	recombinant UMI read abundance (log10)
CGGCAACCATGGACCGGTTTTCCCGGTAATCCGTATTTGAT (site CGGCAACCTAT)	0
CGGCAACCATGGACCGGTTTTCCCGGTAATCCGTATTTGAT (site CGGGAACCTAT)	0
CGGCAACCATGGACCGGTTTTCCCGGTAATCCGTATTTGAT (site CGGTAACCTAT)	0
CGGCACCCATGGACCGGTTTTCCCGGTAATCCGTATTTGTT (site CGGAATCCTAA)	0.00519
CGGCACCCATGGACCGGTTTTCCCGGTAATCCGTATTTGTT (site CGGCACCCTAA)	0.393
CGGCATCCATGGACCGGTTTTCCCGGTAATCCGTATTTGTC (site CGGCATCCTGA)	0
CGGCATGCATGGACCGGTTTTCCCGGTAATCCGTATTTGTT (site CGGAATCCTAA)	0.00719
CGGCATGCATGGACCGGTTTTCCCGGTAATCCGTATTTGTT (site CGGCATGCTAA)	2.31
CGGCCGTCATGGACCGGTTTTCCCGGTAATCCGTATTTGAT (site CGGCCGTCTAT)	0.968
CGGCGGCCATGGACCGGTTTTCCCGGTAATCCGTATTTGTC (site CGGCGGCCTGA)	0.965
CGGCTGCCATGGACCGGTTTTCCCGGTAATCCGTATTTGCA (site CGGCTGCCTTG)	1.18
CGGCTGGCATGGACCGGTTTTCCCGGTAATCCGTATTTGGT (site CGGCTGGCTAC)	1.17
CGGGAACCATGGACCGGTTTTCCCGGTAATCCGTATTTGAA (site CGGGAACCTAT)	0
CGGGAACCATGGACCGGTTTTCCCGGTAATCCGTATTTGAA (site CGGGAACCTCT)	0.00576
CGGGAACCATGGACCGGTTTTCCCGGTAATCCGTATTTGAA (site CGGGAACCTGT)	0
CGGGAACCATGGACCGGTTTTCCCGGTAATCCGTATTTGAA (site CGGGAACCTTT)	0
CGGGAGCCATGGACCGGTTTTCCCGGTAATCCGTATTTGCT (site CGGGAGCCTAG)	0.17
CGGGAGGCATGGACCGGTTTTCCCGGTAATCCGTATTTGCC (site CGGGAGACTGG)	0
CGGGAGGCATGGACCGGTTTTCCCGGTAATCCGTATTTGCC (site CGGGAGCCTGG)	0
CGGGAGGCATGGACCGGTTTTCCCGGTAATCCGTATTTGCC (site CGGGAGGCTGG)	0.183
CGGGAGGCATGGACCGGTTTTCCCGGTAATCCGTATTTGCC (site CGGGAGTCTGG)	0
CGGGAGTCATGGACCGGTTTTCCCGGTAATCCGTATTTGAC (site CGGGAGTCTGA)	2.28
CGGGAGTCATGGACCGGTTTTCCCGGTAATCCGTATTTGAC (site CGGGAGTCTGC)	1.66
CGGGAGTCATGGACCGGTTTTCCCGGTAATCCGTATTTGAC (site CGGGAGTCTGG)	1.25
CGGGAGTCATGGACCGGTTTTCCCGGTAATCCGTATTTGAC (site CGGGAGTCTGT)	0.147

Sequence	recombinant UMI read abundance (log10)
CGGGAGTCATGGACCGGTTTTCCCGGTAATCCGTATTTGGT (site CGGGAGTCTAC)	2.11
CGGGATCCATGGACCGGTTTTCCCGGTAATCCGTATTTGTA (site CGGAATCCTAA)	0
CGGGATCCATGGACCGGTTTTCCCGGTAATCCGTATTTGTA (site CGGGATCCTTA)	1.69
CGGGATTCATGGACCGGTTTTCCCGGTAATCCGTATTTGCC (site CGGGAATCTGG)	0.816
CGGGATTCATGGACCGGTTTTCCCGGTAATCCGTATTTGCC (site CGGGACTCTGG)	2.97
CGGGATTCATGGACCGGTTTTCCCGGTAATCCGTATTTGCC (site CGGGAGTCTGG)	1.18
CGGGATTCATGGACCGGTTTTCCCGGTAATCCGTATTTGCC (site CGGGATTCTGG)	2.58
CGGGATTCATGGACCGGTTTTCCCGGTAATCCGTATTTGTT (site CGGAATCCTAA)	0
CGGGATTCATGGACCGGTTTTCCCGGTAATCCGTATTTGTT (site CGGGATTCTAA)	2.91
CGGGGTACATGGACCGGTTTTCCCGGTAATCCGTATTTGTA (site CGGGGTACTTA)	2.49
CGGGGTGCATGGACCGGTTTTCCCGGTAATCCGTATTTGGT (site CGGGGTGCTAC)	1.25
CGGGTCACATGGACCGGTTTTCCCGGTAATCCGTATTTGTC (site CGGGTCACTGA)	3.01
CGGGTTCCATGGACCGGTTTTCCCGGTAATCCGTATTTGAC (site CGGGTTCCTGT)	0.77
CGGTAGTCATGGACCGGTTTTCCCGGTAATCCGTATTTGCC (site CGGAAGTCTGG)	0.759
CGGTAGTCATGGACCGGTTTTCCCGGTAATCCGTATTTGCC (site CGGCAGTCTGG)	1.47
CGGTAGTCATGGACCGGTTTTCCCGGTAATCCGTATTTGCC (site CGGGAGTCTGG)	0
CGGTAGTCATGGACCGGTTTTCCCGGTAATCCGTATTTGCC (site CGGTAGTCTGG)	2.78
CGGTATACATGGACCGGTTTTCCCGGTAATCCGTATTTGTT (site CGGAATCCTAA)	0
CGGTATACATGGACCGGTTTTCCCGGTAATCCGTATTTGTT (site CGGTATACTAA)	1.62
CGGTATCCATGGACCGGTTTTCCCGGTAATCCGTATTTGAT (site CGGAATCCTAA)	0.00344
CGGTATCCATGGACCGGTTTTCCCGGTAATCCGTATTTGAT (site CGGTATCCTAT)	0.734
CGGTATCCATGGACCGGTTTTCCCGGTAATCCGTATTTGCC (site CGGTATCCTGG)	0
CGGTCATCATGGACCGGTTTTCCCGGTAATCCGTATTTGTT (site CGATCATCTAG)	0
CGGTCATCATGGACCGGTTTTCCCGGTAATCCGTATTTGTT (site CGGTCATCTAA)	0.27
CGGTCGACATGGACCGGTTTTCCCGGTAATCCGTATTTGGA (site CGGTCGACTTC)	0.112

Sequence	recombinant UMI read abundance (log10)
CGGTGCGCATGGACCGGTTTTCCCGGTAATCCGTATTTGCC (site CGGTGCGCTGG)	1.48
CGGTGTCCATGGACCGGTTTTCCCGGTAATCCGTATTTGTT (site CGGAATCCTAA)	0.0121
CGGTGTCCATGGACCGGTTTTCCCGGTAATCCGTATTTGTT (site CGGTGTCCTAA)	0.0166
CGGTTAGCATGGACCGGTTTTCCCGGTAATCCGTATTTGTG (site CAGTTAGCTCA)	0.694
CGGTTAGCATGGACCGGTTTTCCCGGTAATCCGTATTTGTG (site CCGTTAGCTCA)	0
CGGTTAGCATGGACCGGTTTTCCCGGTAATCCGTATTTGTG (site CGGTTAGCTCA)	1.7
CGGTTAGCATGGACCGGTTTTCCCGGTAATCCGTATTTGTG (site CTGTTAGCTCA)	0.256
CGTACAACATGGACCGGTTTTCCCGGTAATCCGTATTTGGT (site CGTACAACTAC)	1.09
CGTAGCGCATGGACCGGTTTTCCCGGTAATCCGTATTTGTT (site CGTAGCGCTAA)	1.05
CGTCAGACATGGACCGGTTTTCCCGGTAATCCGTATTTGAG (site CGTAAGACTCT)	0.182
CGTCAGACATGGACCGGTTTTCCCGGTAATCCGTATTTGAG (site CGTCAGACTCT)	1.16
CGTCAGACATGGACCGGTTTTCCCGGTAATCCGTATTTGAG (site CGTGAGACTCT)	0.016
CGTCAGACATGGACCGGTTTTCCCGGTAATCCGTATTTGAG (site CGTTAGACTCT)	0.0174
CGTCGACCATGGACCGGTTTTCCCGGTAATCCGTATTTGAT (site CGTCGACCTAT)	0.0862
CGTCGTACATGGACCGGTTTTCCCGGTAATCCGTATTTGCT (site CGACGTACTAG)	0.689
CGTCGTACATGGACCGGTTTTCCCGGTAATCCGTATTTGCT (site CGCCGTACTAG)	1.22
CGTCGTACATGGACCGGTTTTCCCGGTAATCCGTATTTGCT (site CGGCGTACTAG)	0.794
CGTCGTACATGGACCGGTTTTCCCGGTAATCCGTATTTGCT (site CGTCGTACTAG)	1.76
CGTCTCCCATGGACCGGTTTTCCCGGTAATCCGTATTTGAG (site CGTCTCCCTCT)	0.0129
CGTGAACCATGGACCGGTTTTCCCGGTAATCCGTATTTGAT (site CGAGAACCTAT)	0.0201
CGTGAACCATGGACCGGTTTTCCCGGTAATCCGTATTTGAT (site CGCGAACCTAT)	0
CGTGAACCATGGACCGGTTTTCCCGGTAATCCGTATTTGAT (site CGGGAACCTAT)	0
CGTGAACCATGGACCGGTTTTCCCGGTAATCCGTATTTGAT (site CGTGAACCTAT)	0.0133
CGTGACTCATGGACCGGTTTTCCCGGTAATCCGTATTTGCG (site CGTGACTCTCG)	2.74
CGTGACTCATGGACCGGTTTTCCCGGTAATCCGTATTTGTA (site CGTGACTCTTA)	3.02
